{
  "source": "patent US20160331754A1",
  "about": "“THERAPIES FOR TREATING CANCERS” (GILEAD SCIENCES, INC., priority 2014, published 2016)",
  "key": {"Ri-1 DLBCL cells": {"system": "Ri-1 DLBCL cells", "assay": "Cell death assay (Annexin V/7AAD) in Ri-1 DLBCL cells", "type": "cell-based", "settings": "0 nM Compound B, 3 days", "description": "(§1) Further, whole blood (WB) autologous B-cell depletion and cell-death induction assays were conducted as described in Mossner et al., Blood 115:4393-402, 2010. For cell death assay: Ri-1 DLBCL cells were seeded at 15,000 cells/well in 96-well plates. Cells were preincubated with Compound B or DMSO for 1 hour before the addition of antibody. Plates were incubated at 37° C. in a humidified CO2 chamber for 3 days. Cells were washed once with PBS and treated with Accutase for 15 minutes before being stained with Guava Nexin® reagent and analyzed on the Guava EasyCyte flow cytometer (Merck Millipore).\nAfter 3 days of incubation, cell death was assessed by Annexin V/7AAD staining."}, "WIL2-S": {"system": "WIL2-S", "assay": "ADCC LDH release assay, purified NK cells against WIL2-S target cells", "type": "cell-based, human", "settings": "for Percentage of ADCC, obinutuzumab ADCC: obinutuzumab 10 μg/mL; for Percentage of ADCC, Palivizumab ADCC: Palivizumab (isotype control) 10 μg/mL"}, "autologous B cells": {"system": "autologous B cells", "assay": "Whole blood (WB) autologous B-cell depletion assay", "type": "cell-based", "description": "as §1\nThe percentage of deplete autologous B cells in a whole blood assay may represent the antibody potency."}, "p-AKT Ser473 [1]": {"system": "p-AKT Ser473", "assay": "Flow cytometry, basal AKT phosphorylation in CD34+ progenitor cells from MF patients", "type": "cell-based, human", "settings": "for effect on p-AKT in MF progenitor cells: basal and TPO-treated, dose dependent", "description": "(§2) PBMCs were isolated from whole blood of myelofibrosis (MF) patients who had not received treatments (i.e. naïve patients) or received ruxolitinib (i.e. rux-treated patients). The cells were treated with 0.02, 0.2, or 2.0 μM of Compound B or vehicle (0.1% DMSO in 0.1% FBS/RPMI) for 2 hours at 37° C. The cells were then fixed, permeabilized, and stained for FACS analysis. Antibodies specific to p-AKT Ser473 and pS6RP Ser235/236 were used to detect AKT phosphorylation (p-AKT) and S6RP phosphorylation (p-S6RP) in CD34^+/CD3^−/CD14^−/CD19/CD66^− (BD Biosciences) gated cells using flow cytometry. The percentage of basal (i.e. untreated with TPO) AKT and S6RP phosphorylation were normalized to vehicle control. A two-tailed paired t-test (GraphPad Prism) was used to calculate p-values. Values of p<0.05 were considered significant.\n(§3) Similar studies were conducted with PI3K inhibitors Compounds C and D. PBMC from MF patients had received ruxolitinib (rux) and MF patient had received Compound A. The cells were treated with Compounds C or D at 0, 20.0, 200.0, 2000.0 nM for 2 hours at 37° C. Cells were treated with TPO for 10 minutes. The percentage of basal p-AKT and p-S6RP levels were normalized to vehicle control and those of TPO-treated were normalized to TPO-treated vehicle control. The PI3Kδ inhibitors Compound C is referred by the chemical names of (S)-2-(1-((9H-purin-6-yl)amino)ethyl)-6-fluoro-3-phenylquinazolin-4(3H)-one."}, "p-AKT Ser473 [2]": {"system": "p-AKT Ser473", "assay": "Flow cytometry, TPO-activated AKT phosphorylation in CD34+ progenitor cells from MF patients", "type": "cell-based, human", "description": "as §2\n(§4) Also, PBMC cells from naïve or ruxolitinib treated patients were isolated and treated with Compound B and with TPO as described above. The percentage of TPO-activated AKT and S6RP phosphorylation were normalized to those of TPO-treated vehicle (“no TPO” values in Table 4). […] Also, the inhibition to PI3K signaling was dose-dependent to Compound B.\nas §3"}, "pS6RP Ser235/236 [3]": {"system": "pS6RP Ser235/236", "assay": "Flow cytometry, basal S6RP phosphorylation in CD34+ progenitor cells from MF patients", "type": "cell-based, human", "settings": "for effect on p-S6RP in MF progenitor cells: basal and TPO-treated, dose dependent", "description": "as §2, §3"}, "pS6RP Ser235/236 [4]": {"system": "pS6RP Ser235/236", "assay": "Flow cytometry, TPO-activated S6RP phosphorylation in CD34+ progenitor cells from MF patients", "type": "cell-based, human", "description": "as §2, §4, §3"}, "[5]": {"settings": "administered once a day; cited from earlier work"}, "CLL": {"system": "CLL", "settings": "patients with recurrent CLL; cited from earlier work"}, "[6]": {"settings": "20 nM, Compound A-treated Cells"}, "[7]": {"settings": "200 nM, Compound A-treated Cells"}, "[8]": {"settings": "2000 nM, Compound A-treated Cells"}},
  "note": "Values joined by “and” are separate entries in the source; they are usually repeats but may differ in a detail not shown here. Equal entries are not always repeated.",
  "data": [
    {"compound": "obinutuzumab: glycoengineered, type II, anti-CD20 antibody", "values": [
      {"measurement": "Percentage of total Annexin V+ cells", "setting": "Ri-1 DLBCL cells; Obinutuzumab 0.1 μg/mL", "value": "30% and 36% and 35% and 37%"},
      {"measurement": "Percentage of total Annexin V+ cells", "setting": "Ri-1 DLBCL cells; Obinutuzumab 1 μg/mL", "value": "45% and 50% and 49% and 46%"},
      {"measurement": "Percentage of total Annexin V+ cells", "setting": "Ri-1 DLBCL cells; Obinutuzumab 10 μg/mL", "value": "54% and 49% and 56%"},
      {"measurement": "Percentage of ADCC, obinutuzumab ADCC", "setting": "WIL2-S; E:T 10:1", "value": "74% and 73% and 69% and 67% and 71%"},
      {"measurement": "Percentage of ADCC, obinutuzumab ADCC", "setting": "WIL2-S; E:T 30:1", "value": "81% and 72% and 80% and 84% and 69% and 89% and 88%"},
      {"measurement": "Percentage of B-cell depletion in WB", "setting": "autologous B cells; obinutuzumab 0.06 ng/mL alone", "value": "−4% and −2% and 0%"},
      {"measurement": "Percentage of B-cell depletion in WB", "setting": "autologous B cells; obinutuzumab 8 ng/mL alone", "value": "34% and 38% and 55% and 45%"},
      {"measurement": "Percentage of B-cell depletion in WB", "setting": "autologous B cells; obinutuzumab 40 ng/mL alone", "value": "43% and 49% and 60% and 65%"},
      {"measurement": "Percentage of B-cell depletion in WB", "setting": "autologous B cells; obinutuzumab 200 ng/mL alone", "value": "50% and 69%"},
      {"measurement": "Percentage of B-cell depletion in WB", "setting": "autologous B cells; obinutuzumab 1000 ng/mL alone, donors S1-S4", "value": "52% and 63% and 71% and 56%"},
      {"measurement": "Percentage of B-cell depletion WB", "setting": "autologous B cells; obinutuzumab 10 μg/mL, Compound B 0 nM", "value": "57% and 71% and 65%"}
    ]},
    {"compound": "C[C@H](Nc1ncnc2[nH]cnc12)c1nc2ccc(F)cc2c(=O)n1-c1ccccc1", "note": "[Compound C, (S)-2-(1-((9H-purin-6-yl)amino)ethyl)-6-fluoro-3-phenylquinazolin-4(3H)-one]", "values": [
      {"measurement": "percentage of pAKT, Basal", "setting": "p-AKT Ser473 [1]; 20 nM 2 h, Rux-treated Cells, vehicle=100", "value": 88, "unit": "%"},
      {"measurement": "percentage of pAKT, Basal", "setting": "p-AKT Ser473 [1]; [6]", "value": 89, "unit": "%"},
      {"measurement": "percentage of pAKT, Basal", "setting": "p-AKT Ser473 [1]; [7]", "value": 82, "unit": "%"},
      {"measurement": "percentage of pAKT, Basal", "setting": "p-AKT Ser473 [1]; 200 nM, Rux-treated Cells", "value": 90, "unit": "%"},
      {"measurement": "percentage of pAKT, Basal", "setting": "p-AKT Ser473 [1]; [8]", "value": 75, "unit": "%"},
      {"measurement": "percentage of pAKT, Basal", "setting": "p-AKT Ser473 [1]; 2000 nM, Rux-treated Cells", "value": 75, "unit": "%"},
      {"measurement": "effect on p-AKT in MF progenitor cells", "setting": "p-AKT Ser473 [1]", "value": "inhibited"},
      {"measurement": "percentage of pAKT, TPO", "setting": "p-AKT Ser473 [2]; [6]", "value": 65, "unit": "%"},
      {"measurement": "percentage of pAKT, TPO", "setting": "p-AKT Ser473 [2]; 20 nM, Rux-treated Cells, TPO-treated vehicle=100", "value": 65, "unit": "%"},
      {"measurement": "percentage of pAKT, TPO", "setting": "p-AKT Ser473 [2]; [7]", "value": 59, "unit": "%"},
      {"measurement": "percentage of pAKT, TPO", "setting": "p-AKT Ser473 [2]; 200 nM, Rux-treated Cells", "value": 53, "unit": "%"},
      {"measurement": "percentage of pAKT, TPO", "setting": "p-AKT Ser473 [2]; [8]", "value": 43, "unit": "%"},
      {"measurement": "percentage of pAKT, TPO", "setting": "p-AKT Ser473 [2]; 2000 nM, Rux-treated Cells", "value": 24, "unit": "%"},
      {"measurement": "percentage of pS6, Basal", "setting": "pS6RP Ser235/236 [3]; [6]", "value": 82, "unit": "%"},
      {"measurement": "percentage of pS6, Basal", "setting": "pS6RP Ser235/236 [3]; 20 nM, Rux-treated Cells", "value": 65, "unit": "%"},
      {"measurement": "percentage of pS6, Basal", "setting": "pS6RP Ser235/236 [3]; [7]", "value": 75, "unit": "%"},
      {"measurement": "percentage of pS6, Basal", "setting": "pS6RP Ser235/236 [3]; 200 nM, Rux-treated Cells", "value": 59, "unit": "%"},
      {"measurement": "percentage of pS6, Basal", "setting": "pS6RP Ser235/236 [3]; [8]", "value": 53, "unit": "%"},
      {"measurement": "percentage of pS6, Basal", "setting": "pS6RP Ser235/236 [3]; 2000 nM, Rux-treated Cells", "value": 43, "unit": "%"},
      {"measurement": "effect on p-S6RP in MF progenitor cells", "setting": "pS6RP Ser235/236 [3]", "value": "inhibited"},
      {"measurement": "percentage of pS6, TPO", "setting": "pS6RP Ser235/236 [4]; [6]", "value": 66, "unit": "%"},
      {"measurement": "percentage of pS6, TPO", "setting": "pS6RP Ser235/236 [4]; 20 nM, Rux-treated Cells", "value": 84, "unit": "%"},
      {"measurement": "percentage of pS6, TPO", "setting": "pS6RP Ser235/236 [4]; [7]", "value": 70, "unit": "%"},
      {"measurement": "percentage of pS6, TPO", "setting": "pS6RP Ser235/236 [4]; 200 nM, Rux-treated Cells", "value": 62, "unit": "%"},
      {"measurement": "percentage of pS6, TPO", "setting": "pS6RP Ser235/236 [4]; [8]", "value": 36, "unit": "%"},
      {"measurement": "percentage of pS6, TPO", "setting": "pS6RP Ser235/236 [4]; 2000 nM, Rux-treated Cells", "value": 42, "unit": "%"}
    ]},
    {"compound": "Cc1cnc(Nc2ccc(OCCN3CCCC3)cc2)nc1Nc1cccc(S(=O)(=O)NC(C)(C)C)c1", "note": "[TG101348]", "values": [
      {"measurement": "maximum tolerated dose (MTD)", "setting": "[5]", "value": 680, "unit": "mg/day"}
    ]},
    {"compound": "ofatumumab: monoclonal antibody, alternative immunotherapeutic for CLL", "values": [
      {"measurement": "median progression-free survival (PFS)", "setting": "CLL", "value": 5.8, "unit": "months"}
    ]},
    {"compound": "C[C@H](Nc1ncnc2[nH]cnc12)c1nc2ccccc2c(=O)n1-c1c(F)cccc1F", "note": "[Compound D, (S)-2-(1-((9H-purin-6-yl)amino)ethyl)-3-(2,6-difluorophenyl)quinazolin-4(3H)-one]", "values": [
      {"measurement": "effect on p-AKT in MF progenitor cells", "setting": "p-AKT Ser473 [1]", "value": "inhibited"},
      {"measurement": "effect on p-S6RP in MF progenitor cells", "setting": "pS6RP Ser235/236 [3]", "value": "inhibited"}
    ]},
    {"compound": "alemtuzumab: monoclonal antibody, alternative immunotherapeutic for CLL", "values": [
      {"measurement": "median progression-free survival (PFS)", "setting": "CLL", "value": 4.7, "unit": "months"}
    ]},
    {"compound": "Palivizumab: used as an isotype control [reference compound]", "values": [
      {"measurement": "Percentage of total Annexin V+ cells", "setting": "Ri-1 DLBCL cells; Palivizumab 10 μg/mL", "value": "13% and 19% and 14% and 21%"},
      {"measurement": "Percentage of ADCC, Palivizumab ADCC", "setting": "WIL2-S; E:T 1:1", "value": "3% and 4% and −1% and 2%"},
      {"measurement": "Percentage of ADCC, Palivizumab ADCC", "setting": "WIL2-S; E:T 3:1", "value": "8% and 11% and 10% and 6% and 4% and 5% and 7%"},
      {"measurement": "Percentage of ADCC, Palivizumab ADCC", "setting": "WIL2-S; E:T 30:1", "value": "31% and 37% and 36% and 34% and 39% and 25% and 29% and 24%"}
    ]}
  ]
}
